The text below walks through data of patent US20220228164A1, “ENGINEERED ANTIGEN PRESENTING CELLS” (Neogene Therapeutics B.V., priority 2021, published 2022).

What all share (type): cell-based, human
Assay [1] deals with TCR-KO Jurkat T cells expressing the GCN1L1 TCR. In words: Peptide electroporation of BCL-6/BCL-xL-CD40L immortalized B cells, co-culture with TCR Jurkat T cells, CD69 (Examples 11, 12). The following applies: for presentation of the GCN1L1 antigen after peptide electroporation (CD69+ of live cells): electroporated into BCL-6/BCL-xL-CD40L immortalized B cells. An excerpt:
Immortalized primary human B cells that are electroporated with a polypeptide of a uniform length (25mer) will be efficiently processed and present T cell epitopes encoded within the polypeptide via the MHC class I pathway and activate T cells expressing an MHC class I restricted TCR specific for the T cell epitope encoded within the polypeptide. BCL-6/BCL-xL-CD40L immortalized B cells from a healthy donor were electroporated with short (10mer) (ALLETPSLLL, SEQ ID NO: 5) or long (25mer) ([…], SEQ ID NO: 6) peptides encoding the GCN1L1 mutated peptide or CMV mutated long peptide ([…], SEQ ID NO: 7), using a method known to the skilled artisan. Briefly, for each sample, 0.2e6 B cells were harvested and washed with PBS. After removal of all PBS, the dry pellet was resuspended in electroporation buffer (SF-buffer, Lonza) at a concentration of 25e6 cells per mL. Of this mixture, 20 μL per sample was added to a 96 well tissue-culture-plate that contains the appropriate amount of peptide resulting in the indicated peptide concentration. Cells were transferred to a 16-well electroporation strip (Lonza) and subsequently electroporated using the DN100 program (Lonza Amaxa). Post-electroporation, cells were rested for 10 minutes at 37° C. and transferred to a 96 well round bottom tissue-culture plate in a final volume of 200 μL of Complete B cell Medium (RPMI1640 medium supplemented with 10% (v/v) Fetal Calf Serum (FCS), 1% (v/v) Penicillin/Streptomycin (P/S), 1% (v/v) Sodium Pyruvate, 1% (v/v) Non-essential amino acids, 1% (v/v) Glutamax, 50 nM 2-Mercaptoethanol) and incubated for 0, 2, 4, 5, 6, 10 or 24 hrs at 37° C. The resting period post peptide electroporation allows for exogenous loading of the peptide onto the target cells in a parallel experimental condition. […] After 20 hours, cells were stained with antibodies directed against CD8 and CD69 and specific recognition by TCR td T cells was measured by CD69 upregulation on a flow cytometer. […]

Assay [2] relates to TCR-KO Jurkat T cells expressing the CMV1 TCR. Described as above. The settings on record: 25mer electroporated; MHC class I restricted TCR. The source says:
Immortalized primary human B cells that are electroporated with a polypeptide of a uniform length (25mer) will be efficiently processed and present T cell epitopes encoded within the polypeptide via the MHC class I pathway and activate T cells expressing an MHC class I restricted TCR specific for the T cell epitope encoded within the polypeptide. BCL-6/BCL-xL-CD40L immortalized B cells from a healthy donor were electroporated with short (10mer) (ALLETPSLLL, SEQ ID NO: 5) or long (25mer) ([…], SEQ ID NO: 6) peptides encoding the GCN1L1 mutated peptide or CMV mutated long peptide ([…], SEQ ID NO: 7), using a method known to the skilled artisan. Briefly, for each sample, 0.2e6 B cells were harvested and washed with PBS. After removal of all PBS, the dry pellet was resuspended in electroporation buffer (SF-buffer, Lonza) at a concentration of 25e6 cells per mL. […] After 20 hours, cells were stained with antibodies directed against CD8 and CD69 and specific recognition by TCR td T cells was measured by CD69 upregulation on a flow cytometer.
A CMV epitope was electroporated or loaded onto BCL-6/BCL-xL/CD40L immortalized B cells. T cell activation was measured for various concentrations of peptide after 6, 10 or 24 hours of post-electroporation resting (FIG. 17A) or were loaded with peptide (FIG. 17B) for similar time-points. […]

Assay [3] relates to Jurkat T cells expressing the class II restricted MAGE-A3 TCR. As to the kind of experiment: Peptide electroporation of BCL-6/BCL-xL-CD40L immortalized B cells, co-culture with TCR Jurkat T cells, CD69 (Example 12). The following applies: 25mer electroporated; MHC class II restricted TCR.

“FSWNVKAALLETPSLLLAKVGIALK [long GCN1L1 peptide, long (25mer) peptide encoding the GCN1L1 mutated peptide]”: the “post-electroporation rest with which the peptide elicits a response (% CD69)” value (“post-electroporation rest … (% CD69)” below) in assay [1] (25mer electroporated, MHC class I restricted TCR) was at least 2 h. In addition, the “presentation of the GCN1L1 antigen after peptide electroporation (CD69+ of live cells)” value in assay [1] is given as “efficient presentation”. Turning to “WQAGILARNLVPMVATVQGQNLKYQ [long CMV1 peptide, CMV long (25mer) peptide]”, the “post-electroporation rest … (% CD69)” value in assay [2] was at least 2 h. Consider “ALLETPSLLL [short GCN1L1 peptide, short (10mer) peptide encoding the GCN1L1 mutated peptide]”, for which the “presentation of the GCN1L1 antigen after peptide electroporation (CD69+ of live cells)” value in assay [1] is recorded as “efficient presentation”. As for ILGDPKKLLTQHFVQENYLEYRQVP [MAGEA3], the “post-electroporation rest … (% CD69)” value in assay [3] is at least 2 h.
